# Laboratory results: the supplement of paper PMC10331698
# ± gives the standard deviation of the averaged measurements.
# Columns and labels:
# Experiment in all cases: level (log10 ratio to DMSO vehicle control); higher = higher biomarker level / cell amount than vehicle control
# Settings in all cases: in DMSO
# [1] = compound: CCCCCCCCC(F)(F)C(F)(F)C(F)(F)C(F)(F)C(F)(F)C(F)(F)F [1-(Perfluorohexyl)octane]
# Experimental: (§1)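 BioMAP Diversity Plus panel of 12 human primary cell co-culture systems (3C, 4H, LPS, SAg, BT, BF4T, BE3C, CASM3C, HDF3CGF, KF3CT, MyoF, Mphg). Compounds were added 1 h before stimulation and left for 24 h (MyoF 48 h; BT 72 h for soluble read-outs or 6 d for IgG). Biomarkers were read by ELISA, cytotoxicity by SRB, PBMC viability and proliferation by Alamar Blue. Each well value was divided by the mean of 8 DMSO control wells on the same plate and log10 transformed; duplicate blinded samples were tested at 4 concentrations.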
# [2] = compound: Cn1cnc([N+](=O)[O-])c1Sc1ncnc2[nH]cnc12 [Azathioprine]
# Experimental: as §1
# [3] = compound: NC(=O)C(F)(F)C(F)(F)C(F)(F)C(F)(F)C(F)(F)C(F)(F)C(F)(F)F [Perfluorooctanamide]
# Experimental: as §1
# [4] = compound: O=C(O)C(F)(F)C(F)(F)C(F)(F)C(F)(F)C(F)(F)C(F)(F)C(F)(F)C(F)(F)Cl [9-Chloro-perfluorononanoic acid]
# Experimental: as §1
# [5] = compound: O=C(O)C(F)(F)OC(F)(F)C(F)(F)OC(F)(F)C(F)(F)C(F)(F)C(F)(F)F [Perfluoro-3,6-dioxadecanoic acid]
# Experimental: as §1
# [6] = compound: O=S(=O)(O)C(F)(F)C(F)(F)C(F)(F)C(F)(F)F [Perfluorobutanesulfonic acid]
# Experimental: as §1
# [7] = compound: OCC(F)(F)C(F)(F)C(F)(F)F [1H,1H-Heptafluorobutanol]
# Experimental: as §1
Test System,level (log10) ([1]; 6700 nM),level (log10) ([1]; 20000 nM),level (log10) ([2]; 1400 nM),level (log10) ([2]; 4200 nM),level (log10) ([2]; 13000 nM),level (log10) ([2]; 38000 nM),level (log10) ([3]; 6700 nM),level (log10) ([3]; 20000 nM),level (log10) ([3]; 60000 nM),level (log10) ([4]; 6700 nM),level (log10) ([4]; 20000 nM),level (log10) ([5]; 6700 nM),level (log10) ([5]; 20000 nM),level (log10) ([5]; 60000 nM),level (log10) ([6]; 6700 nM),level (log10) ([6]; 20000 nM),level (log10) ([6]; 60000 nM),level (log10) ([7]; 6700 nM),level (log10) ([7]; 20000 nM),level (log10) ([7]; 60000 nM)
CASM3C:CXCL9/MIG,-0.0115 ± 0.0021,0.0255 ± 0.005,0.012 ± 0.033,-0.0135 ± 0.005,0.008 ± 0.0057,0.0525 ± 0.042,-0.0205 ± 0.037,0.0135 ± 0.0021,0.0365 ± 0.032,-0.0355 ± 0.0035,-0.0235 ± 0.013,-0.006 ± 0.0085,-0.0045 ± 0.015,0.0155 ± 0.06,0.01 ± 0.028,0.0135 ± 0.035,0.0465 ± 0.0092,0.003 ± 0.0014,-0.006 ± 0.013,0.015 ± 0.044
CASM3C:PAI-I,-0.011 ± 0.0014,0.0035 ± 0.0078,-0.0045 ± 0.0021,0.007 ± 0.0057,0.007 ± 0.0014,0.01 ± 0.0042,-0.0015 ± 0.0064,0.004 ± 0.0057,-0.0015 ± 0.016,-0.002 ± 0.0071,0.0065 ± 0.0078,0.001 ± 0.0042,0.003 ± 0.0071,0.011 ± 0.011,-0.0095 ± 0.012,0.0035 ± 0.0064,0.007 ± 0.0099,0.0015 ± 0.0092,-0.0045 ± 0.00071,0.009 ± 0.0042
CASM3C:Proliferation,-0.0005 ± 0.067,0.0175 ± 0.046,-0.0225 ± 0.037,-0.0225 ± 0.005,-0.0785 ± 0.012,-0.147 ± 0.028,-0.0135 ± 0.005,-0.036 ± 0.027,-0.0415 ± 0.015,-0.016 ± 0.02,0.004 ± 0.025,0.0135 ± 0.0035,-0.0165 ± 0.029,0.0015 ± 0.018,-0.0455 ± 0.044,-0.0405 ± 0.013,-0.019 ± 0.017,-0.005 ± 0.014,0.0045 ± 0.025,0.024 ± 0.055
MyoF:PAI-I,-0.008 ± 0.0014,-0.007 ± 0.0042,-0.004 ± 0.0085,-0.0025 ± 0.0064,-0.0015 ± 0.005,0 ± 0.0085,-0.009,-0.014 ± 0.0071,0.005 ± 0.0014,-0.0065 ± 0.0078,-0.0185 ± 0.011,0.001 ± 0.0014,-0.0005 ± 0.0092,-0.015 ± 0.0057,-0.011 ± 0.013,0.0065 ± 0.0078,0.0005 ± 0.0064,0.0065 ± 0.0035,0.002 ± 0.0071,-0.001
KF3CT:CD54/ICAM-1,0.0045 ± 0.033,-0.0065 ± 0.0035,-0.02 ± 0.0028,0.0015 ± 0.0092,-0.005 ± 0.0085,0.0045 ± 0.011,0.0015 ± 0.0078,0 ± 0.014,0.001,-0.0175 ± 0.00071,-0.039 ± 0.0014,-0.0295 ± 0.023,-0.0435 ± 0.0035,-0.033 ± 0.0085,0.0015 ± 0.029,0.0225 ± 0.012,0.0005 ± 0.00071,0.009 ± 0.0099,-0.0095 ± 0.0092,0.019 ± 0.0014
lMphg:CXCL8/IL-8,-0.0215 ± 0.0078,0.022 ± 0.02,-0.0045 ± 0.047,-0.042 ± 0.021,0.0375 ± 0.0064,0.0825 ± 0.019,0.013 ± 0.028,0.0285 ± 0.012,0.031 ± 0.042,-0.0145 ± 0.0078,0.0115 ± 0.025,0.01 ± 0.0057,0.0595 ± 0.025,0.0695 ± 0.021,0.022 ± 0.0028,0.06 ± 0.0085,0.183 ± 0.0099,0.003 ± 0.055,0.0295 ± 0.036,0.0415 ± 0.021
HDF3CGF:Collagen I,0.006 ± 0.0085,-0.01 ± 0.1,-0.0185 ± 0.005,-0.059 ± 0.044,-0.0475 ± 0.028,-0.034 ± 0.064,-0.0135 ± 0.043,-0.0555 ± 0.013,0.0095 ± 0.081,-0.0595 ± 0.005,-0.151 ± 0.0042,-0.052 ± 0.011,-0.0485 ± 0.0064,-0.095 ± 0.13,0.0175 ± 0.037,-0.003 ± 0.025,0.0345 ± 0.043,-0.005 ± 0.016,-0.0215 ± 0.0021,0.012 ± 0.017
BE3C:MMP-1,0.0155 ± 0.018,0.0395 ± 0.053,-0.0025 ± 0.013,0.001 ± 0.0057,-0.0235 ± 0.019,-0.0645 ± 0.0021,0.0075 ± 0.0078,0.014 ± 0.0071,0.022 ± 0.018,0.083 ± 0.024,0.277 ± 0.0064,0.067 ± 0.0014,0.172 ± 0.0035,0.355 ± 0.021,0.0055 ± 0.028,-0.011 ± 0.0057,0.019 ± 0.013,0.0035 ± 0.0078,-0.015 ± 0.02,0.0025 ± 0.028
HDF3CGF:CD106/VCAM-1,-0.004 ± 0.016,-0.0265 ± 0.0064,-0.0485 ± 0.1,-0.021 ± 0.03,-0.08 ± 0.042,-0.243 ± 0.0057,-0.015 ± 0.0099,0.0005 ± 0.005,-0.016 ± 0.0085,-0.0005 ± 0.074,-0.067 ± 0.096,-0.0845 ± 0.0021,-0.15 ± 0.0057,-0.21 ± 0.013,-0.02 ± 0.013,-0.01 ± 0.0014,-0.025 ± 0.058,-0.033 ± 0.048,-0.003 ± 0.079,-0.0055 ± 0.09
HDF3CGF:EGFR,-0.007 ± 0.0028,0.0125 ± 0.005,-0.006 ± 0.0014,-0.0565 ± 0.076,-0.05 ± 0.061,-0.011 ± 0.1,0.008 ± 0.013,0.0125 ± 0.015,0.0375 ± 0.042,-0.135 ± 0.099,-0.2 ± 0.054,-0.0005 ± 0.0064,-0.0815 ± 0.026,-0.135 ± 0.016,0.0105 ± 0.005,-0.032 ± 0.048,-0.0205 ± 0.032,-0.086 ± 0.031,-0.0205 ± 0.081,-0.039 ± 0.1
HDF3CGF:CXCL9/MIG,0.0055 ± 0.00071,0.025 ± 0.014,-0.002 ± 0.018,-0.0215 ± 0.013,-0.026 ± 0.02,-0.0645 ± 0.005,-0.014 ± 0.013,0.0115 ± 0.012,0.0415 ± 0.0078,-0.047 ± 0.02,-0.142 ± 0.04,-0.0175 ± 0.0064,-0.046 ± 0.092,-0.126,-0.01 ± 0.0085,-0.0145 ± 0.0092,-0.0035 ± 0.005,0.0035 ± 0.028,-0.0005 ± 0.022,-0.008 ± 0.033
